The compounds below were run against FGFR2 (Homo sapiens, UniProt P21802) (assay: FGFR wild type enzyme assay (HTRF KinEASE-TK), FGFR2). Settings: Enz FGFR2 (nM), FGFR2 wild type enzyme assay.
FGFR2, sequence (P21802 399-821 limits assumed): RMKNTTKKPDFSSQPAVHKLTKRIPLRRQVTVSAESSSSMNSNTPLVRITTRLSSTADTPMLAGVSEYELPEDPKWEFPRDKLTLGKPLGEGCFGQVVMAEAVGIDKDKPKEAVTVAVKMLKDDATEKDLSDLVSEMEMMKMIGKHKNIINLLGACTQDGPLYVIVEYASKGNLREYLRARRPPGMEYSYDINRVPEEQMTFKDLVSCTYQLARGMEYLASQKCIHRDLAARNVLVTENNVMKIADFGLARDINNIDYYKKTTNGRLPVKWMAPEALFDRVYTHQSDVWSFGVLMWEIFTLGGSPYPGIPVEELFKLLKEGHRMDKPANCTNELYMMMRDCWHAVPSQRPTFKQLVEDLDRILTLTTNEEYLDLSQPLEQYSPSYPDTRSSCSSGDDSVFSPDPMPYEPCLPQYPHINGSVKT

Row | SMILES | IC50 [nM]
1 | CN1CCC[C@H](n2cc(-c3cc(Sc4ccccc4C#N)c4c(C#N)cnn4c3)cn2)C1 [Example 515, (S)-4-((2-cyanophenyl)thio)-6-(1-(1-methylpiepridin-3-yl)-1H-pyrazol-4-yl)pyrazolo[1,5-a]pyridine-3-carbonitrile] | 1
2 | CC(=O)N1CCC[C@H](n2cc(-c3cc(Sc4ccccc4C#N)c4c(C#N)cnn4c3)cn2)C1 [Example 516, (S)-6-(1-(1-acetylpiperidin-3-yl)-1H-pyrazol-4-yl)-4-((2-cyanophenyl)thio)pyrazolo [1,5-a]pyridine-3-carbonitrile] | 0.4
3 | N#Cc1ccccc1Sc1cc(-c2cnn([C@H]3CCCN(C(=O)CO)C3)c2)cn2ncc(C#N)c12 [Example 517, (S)-4-((2-cyanophenyl)thio)-6-(1-(1-(2-hydroxyacetyl)piperidin-3-yl)-1H-pyrazol-4-yl)pyrazolo[1,5-a]pyridine-3-carbonitrile] | 0.4
4 | N#Cc1ccccc1Sc1cc(-c2cnn([C@H]3CCCC[C@@H]3O)c2)cn2ncc(C#N)c12 [Example 518, 4-((2-cyanophenyl)thio)-6-(1-((1S,2S)-2-hydroxycyclohexyl)-1H-pyrazol-4-yl)pyrazolo[1,5-a]pyridine-3-carbonitrile] | 0.4
5 | N#Cc1ccccc1Sc1cc(-c2cnn([C@@H]3CCCC[C@H]3O)c2)cn2ncc(C#N)c12 [Example 519, 4-((2-cyanophenyl)thio)-6-(1-((1R,2R)-2-hydroxycyclohexyl)-1H-pyrazol-4-yl)pyrazolo[1,5-a]pyridine-3-carbonitirle] | 1
6 | CC(=O)N1CCCC(n2cc(-c3cc(Sc4ccccc4C#N)c4c(C#N)cnn4c3)cn2)CC1 (stereo not shown) [Example 520, 6-(1-(1-acetylazepan-4-yl)-1H-pyrazol-4-yl)-4-((2-cyanophenyl)thio)pyrazolo [1,5-a]pyridine-3-carbonitrile] | 0.4
7 | N#Cc1cnn2cc(-c3cnn(CCCO)c3)cc(Sc3ncccc3F)c12 [Example 521, 4-((3-fluoropyridin-2-yl)thio)-6-(1-(3-hydroxypropyl)-1H-pyrazol-4-yl)pyrazolo[1,5-a]pyridine-3-carbonitrile] | 2
8 | N#Cc1cnn2cc(-c3cnn(C[C@@H](O)CO)c3)cc(Sc3ncccc3F)c12 [Example 522, (R)-6-(1-(2,3-dihydroxypropyl)-1H-pyrazol-4-yl)-4-((3-fluoropyridin-2-yl)thio)pyrazolo[1,5-a]pyridine-3-carbonitrile] | 2
9 | N#Cc1cnn2cc(-c3cnn(C[C@H](O)CO)c3)cc(Sc3ncccc3F)c12 [Example 523, (S)-6-(1-(2,3-dihydroxypropyl)-1H-pyrazol-4-yl)-4-((3-fluoropyridin-2-yl)thio)pyrazolo[1,5-a]pyridine-3-carbonitrile] | 2
10 | N#Cc1cnn2cc(-c3cnn(C(CO)CO)c3)cc(Sc3ncccc3F)c12 [Example 524, 6-(1-(1,3-dihydroxypropan-2-yl)-1H-pyrazol-4-yl)-4-((3-fluoropyridin-2-yl)thio)pyrazolo[1,5-a]pyridine-3-carbonitrile] | 3
11 | N#Cc1ccccc1Sc1cc(-c2cnn(C(CO)CO)c2)cn2ncc(C#N)c12 [Example 525, 4-((2-cyanophenyl)thio)-6-(1-(1,3-dihydroxypropan-2-yl)-1H-pyrazol-4-yl)pyrazolo[1,5-a]pyridine-3-carbonitrile] | 1
12 | N#Cc1ccccc1Sc1cc(-c2ccc(N3CCNCC3)nc2)cn2ncc(C#N)c12 [Example 526, 4-((2-cyanophenyl)thio)-6-(6-(piperazin-1-yl)pyridin-3-yl)pyrazolo[1,5-a]pyridine-3-carbonitrile] | 1
13 | CN1CCN(c2ccc(-c3cc(Sc4ccccc4C#N)c4c(C#N)cnn4c3)cn2)CC1 [Example 527, 4-((2-cyanophenyl)thio)-6-(6-(4-methylpiperazin-1-yl)pyridin-3-yl)pyrazolo[1,5-a]pyridine-3-carbonitrile] | 0.4
14 | Cc1c(-c2cc(Sc3ccc(F)cc3C#N)c3c(C#N)cnn3c2)cnn1[C@@H]1CCC(C)(C)NC1 [Example 528, 4-(2-cyano-4-fluoro-phenyl)sulfanyl-6-[1-[(3R)-6,6-dimethyl-3-piperidyl]-5-methyl-pyrazol-4-yl]pyrazolo[1,5-a]pyridine-3-carbonitrile] | 2.5
15 | N#Cc1cnn2cc(-c3cn([C@H]4CCCNC4)nc3CO)cc(Sc3ncccc3F)c12 [Example 530, 4-[(3-fluoro-2-pyridyl)sulfanyl]-6-[3-(hydroxymethyl)-1-[(3S)-3-piperidyl]pyrazol-4-yl]pyrazolo[1,5-a]pyridine-3-carbonitrile] | 69
16 | Cc1c(-c2cc(Sc3ccc(F)cc3C#N)c3c(C#N)cnn3c2)cnn1C[C@H](O)CO [Example 531, (S)-4-((2-cyano-4-fluorophenyl)thio)-6-(1-(2,3-dihydroxypropyl)-5-methyl-1H-pyrazol-4-yl)pyrazolo[1,5-a]pyridine-3-carbonitrile] | 11
17 | C[C@H](O)C(=O)N1CCC[C@H](n2cc(-c3cc(Sc4ccccc4C#N)c4c(C#N)cnn4c3)cn2)C1 [Example 532, 4-((2-cyanophenyl)thio)-6-(1-((S)-1-((S)-2-hydroxypropanoyl)piperidin-3-yl)-1H-pyrazol-4-yl)pyrazolo[1,5-a]pyridine-3-carbonitrile] | 0.5
18 | C[C@H](O)C(=O)N1CCC[C@@H](n2cc(-c3cc(Sc4ccccc4C#N)c4c(C#N)cnn4c3)cn2)C1 [Example 533, 4-((2-cyanophenyl)thio)-6-(1-((R)-1-((S)-2-hydroxypropanoyl)piperidin-3-yl)-1H-pyrazol-4-yl)pyrazolo[1,5-a]pyridine-3-carbonitrile] | 1

Second part, the compound after the results:

Row | IC50 [nM] | SMILES
19 | 0.5 | N#Cc1ccccc1Sc1cc(-c2cnn([C@@H]3CCCN(CCO)C3)c2)cn2ncc(C#N)c12 [Example 534, (R)-4-((2-cyanophenyl)thio)-6-(1-(1-(2-hydroxyethyl)piperidin-3-yl)-1H-pyrazol-4-yl)pyrazolo[1,5-a]pyridine-3-carbonitrile]
20 | 0.4 | N#Cc1ccccc1Sc1cc(-c2cnn([C@@H]3CCCNC3)c2)cn2ncc(C#N)c12 [Example 535, (R)-4-((2-cyanophenyl)thio)-6-(1-(piperidin-3-yl)-1H-pyrazol-4-yl)pyrazolo[1,5-a]pyridine-3-carbonitrile]
21 | 1 | N#Cc1ccccc1Sc1cc(-c2cnn([C@@H]3CCCN(C(=O)CO)C3)c2)cn2ncc(C#N)c12 [Example 536, (R)-4-((2-cyanophenyl)thio)-6-(1-(1-(2-hydroxyacetyl)piperidin-3-yl)-1H-pyrazol-4-yl)pyrazolo[1,5-a]pyridine-3-carbonitrile]
22 | 1 | CC(=O)N1CCC[C@@H](n2cc(-c3cc(Sc4ccccc4C#N)c4c(C#N)cnn4c3)cn2)C1 [Example 537, (R)-6-(1-(1-acetylpiperidin-3-yl)-1H-pyrazol-4-yl)-4-((2-cyanophenyl)thio)pyrazolo [1,5-a]pyridine-3-carbonitrile]
23 | 0.3 | COCC(=O)N1CCC(n2cc(-c3cc(Sc4ccccc4C#N)c4c(C#N)cnn4c3)cn2)CC1 [Example 538, 4-((2-cyanophenyl)thio)-6-(1-(1-(2-methoxyacetyl)piperidin-4-yl)-1H-pyrazol-4-yl)pyrazolo[1,5-a]pyridine-3-carbonitrile]
24 | 9 | Cc1ccc(-c2cc(Sc3ccccc3C#N)c3c(C#N)cnn3c2)cn1 [Example 539]
25 | 1 | CNC(=O)Cn1cc(-c2cc(Sc3ccccc3C#N)c3c(C#N)cnn3c2)cn1 [Example 540]
26 | 1 | CN(C)C(=O)Cn1cc(-c2cc(Sc3ccccc3C#N)c3c(C#N)cnn3c2)cn1 [Example 541, 2-(4-(3-cyano-4-((2-cyanophenyl)thio)pyrazolo [1,5-a]pyridin-6-yl)-1H-pyrazol-1-yl)-N,N-dimethylacetamide]
27 | 0.4 | N#Cc1ccccc1Sc1cc(-c2cnn(C3CCOCC3)c2)cn2ncc(C#N)c12 [Example 542, 4-((2-cyanophenyl)thio)-6-(1-(tetrahydro-2H-pyran-4-yl)-1H-pyrazol-4-yl)pyrazolo[1,5-a]pyridine-3-carbonitrile]
28 | 2 | Cc1c(-c2cc(Sc3ccc(F)cc3C#N)c3c(C#N)cnn3c2)cnn1[C@H]1CC[C@H](OP(=O)(O)O)CC1 [Example 543, [4-[4-[3-cyano-4-(2-cyano-4-fluoro-phenyl)sulfanyl-pyrazolo[1,5-a]pyridin-6-yl]-5-methylpyrazol-1-yl]cyclohexyl] dihydrogen phosphate]
29 | 1 | N#Cc1ccccc1Sc1cc(-c2cnn(C[C@H](O)CO)c2)cn2ncc(C#N)c12 [Example 544, (S)-4-((2-cyanophenyl)thio)-6-(1-(2,3-dihydroxypropyl)-1H-pyrazol-4-yl)pyrazolo[1,5-a]pyridine-3-carbonitrile]
30 | 3 | Cn1ncc(-c2cc(Sc3ncccc3F)c3c(C#N)cnn3c2)c1N [Example 545, 6-(5-amino-1-methyl-pyrazol-4-yl)-4-[(3-fluoro-2-pyridyl)sulfanyl]pyrazolo[1,5-a]pyridine-3-carbonitrile]
31 | 6 | N#Cc1cc(F)ccc1Sc1cc(-c2cnn(-c3cn[nH]c3)c2)cn2ncc(C#N)c12 [Example 546, 6-(1′H-[1,4′-bipyrazol]-4-yl)-4-((2-cyano-4-fluorophenyl)thio)pyrazolo [1,5-a]pyridine-3-carbonitrile]
32 | 3 | Cc1c(-c2cc(Sc3ccc(F)cc3C#N)c3c(C#N)cnn3c2)cnn1C1CCOC1 (stereo not shown) [Example 547, 4-((2-cyano-4-fluorophenyl)thio)-6-(5-methyl-1-(tetrahydrofuran-3-yl)-1H-pyrazol-4-yl)pyrazolo[1,5-a]pyridine-3-carbonitrile]
33 | 0.4 | N#Cc1ccccc1Sc1cc(-c2ccc(N3CCC(O)CC3)nc2)cn2ncc(C#N)c12 [Example 548, 4-((2-cyanophenyl)thio)-6-(6-(4-hydroxypiperidin-1-yl)pyridin-3-yl)pyrazolo[1,5-a]pyridine-3-carbonitrile]
34 | 1 | N#Cc1ccccc1Sc1cc(-c2ccc(N3CCCC3)nc2)cn2ncc(C#N)c12 [Example 549, 4-((2-cyanophenyl)thio)-6-(6-(pyrrolidin-1-yl)pyridin-3-yl)pyrazolo[1,5-a]pyridine-3-carbonitrile]

From patent US20240270741A1 (Cogent Biosciences, Inc., priority 2023, published 2024)
